# Key:
# MIA PaCa-2 cells = test: Proliferation, MIA PaCa-2 (2D); assay type: cell-based; settings: Homo sapiens, MIA PaCa-2, 72 hours
# Procedure: (§1) Cells were inoculated onto 96-well plates and treated with compounds in serial dilutions for 3 or 5 days. […] The cell viability of primary patient samples was tested using the CellTiter-Glo Luminescent Assay kit (G7573, Promega) according to the manufacturer’s instructions. […] The optical density (OD) values were obtained using a SPARK microplate reader (Tecan). IC50 was calculated using GraphPad Prism 8.0.2 (nonlinear regression analysis with four parameters). Drug synergy was evaluated with combination index (CI) values using CalcuSyn Demo Version 2.0 software. CI > 1 indicates antagonism, CI < 1 indicates synergy, and CI = 1 indicates additivity.
# MIA PaCa-2/R cells = test: Proliferation, MIA PaCa-2/R (2D); assay type: cell-based; settings: Homo sapiens, MIA PaCa-2/R (AMG510-resistant), 72 hours
# Procedure: as §1
# 293T cells (KRAS-WT) = test: 3D growth inhibition, 293T; assay type: cell-based; settings: Homo sapiens, HEK-293T, 120 h, read-out: IC50 (3D culture), 293T
# Procedure: (§2) Cells were inoculated onto 96-well plates and treated with compounds in serial dilutions for 3 or 5 days. Cell viability was assessed using sulforhodamine B (230162, Sigma-Aldrich) assay and methyl thiazolyl tetrazolium (M5655, Sigma-Aldrich) assay for adherent and suspended cells, respectively, in accordance with previously described methods ([48]). The cell viability of primary patient samples was tested using the CellTiter-Glo Luminescent Assay kit (G7573, Promega) according to the manufacturer’s instructions. Three-dimensional cultivation was conducted in 96-well ultralow attachment plates (7007, Corning). The optical density (OD) values were obtained using a SPARK microplate reader (Tecan). IC50 was calculated using GraphPad Prism 8.0.2 (nonlinear regression analysis with four parameters). Drug synergy was evaluated with combination index (CI) values using CalcuSyn Demo Version 2.0 software. CI > 1 indicates antagonism, CI < 1 indicates synergy, and CI = 1 indicates additivity.
# BxPC-3 cells (KRAS-WT) = test: 3D growth inhibition, BxPC-3; assay type: cell-based; settings: Homo sapiens, BXPC-3, 120 h, read-out: IC50 (3D culture), BxPC-3
# Procedure: as §2
# [1] = test system: NCI-H358 cells (KRAS^G12C); test: 3D growth inhibition, NCI-H358; assay type: cell-based; settings: Homo sapiens, NCI-H358, 120 h, read-out: IC50 (3D culture), NCI-H358
# Procedure: as §2
# GP2d cells (KRAS^G12D) = test: 3D growth inhibition, GP2d; assay type: cell-based; settings: Homo sapiens, 120 h, read-out: IC50 (3D culture), GP2d
# Procedure: as §2
# [2] = test system: HPAF-II cells (KRAS^G12D); test: 3D growth inhibition, HPAF-II; assay type: cell-based; settings: Homo sapiens, 120 h, read-out: IC50 (3D culture), HPAF-II
# Procedure: as §2
# SW620 cells (G12V) = test: 3D growth inhibition, SW620; assay type: cell-based; settings: Homo sapiens, SW-620, 120 h, read-out: IC50 (3D culture), SW620
# Procedure: as §2
# K562 cells = test: Proliferation, K562; assay type: cell-based, human; settings: Homo sapiens, K562, read-out: IC50 (cell proliferation inhibition in K562 cells)
# Procedure: as §1
# [3] = test system: MIA PaCa-2 xenografts (KRAS^G12C); test: MIA PaCa-2 xenograft; assay type: in vivo, mouse; settings: BI-3406 50 mg/kg twice daily, end of 24-day period
# Procedure: (§3) Animal experiments were carried out following the guidelines of the Institutional Animal Care and Use Committee of Shanghai Institute of Materia Medica, Chinese Academy of Sciences, and Lingang Laboratory. […] All mice were raised till the tumor volumes reached approximately 100 mm^3 and were randomly assigned to either the vehicle or treated groups (n = 5/group). […] Body weights and tumor sizes of mice were recorded every 3 days. Tumor volumes were calculated as follows: ½ × length × width^2. On the final day of the experiment, the mice were euthanized and tumor samples were prepared for Western blot analysis.
# K562 xenografts = test: K562 xenograft; assay type: in vivo; settings: imatinib (100 mg/kg) monotherapy, orally daily
# Procedure: as §3
smiles,measurement,setting,value
"C=CC(=O)N1CCN(c2nc(=O)n(-c3c(C)ccnc3C(C)C)c3nc(-c4c(O)cccc4F)c(F)cc23)[C@@H](C)C1 [AMG510, sotorasib]",IC50,MIA PaCa-2 cells,25 nM
same,IC50,MIA PaCa-2/R cells,590000 nM
COc1cc2nc(C)nc(N[C@H](C)c3cc(N)cc(C(F)(F)F)c3)c2cc1O[C@H]1CCOC1 [BI-3406],IC50,293T cells (KRAS-WT),> 10000 nM
same,IC50,BxPC-3 cells (KRAS-WT),692 nM
same,IC50,[1],11 nM
same,IC50,GP2d cells (KRAS^G12D),4.1 nM
same,IC50,[2],61.9 nM
same,IC50,SW620 cells (G12V),18 nM
same,IC50,K562 cells,199 ± 32 nM
same,tumor growth inhibition,[3],62.0%
Cc1ccc(NC(=O)c2ccc(CN3CCN(C)CC3)cc2)cc1Nc1nccc(-c2cccnc2)n1 [imatinib],TGI,K562 xenografts,50.9%
